According to patent publication US8871753B2, “Macrocyclic compounds and their use as kinase inhibitors” (Incyte Corporation, priority 2008, dated 2014):
pIC50: −log10 of the molar value. Structures can show the parent of a compound that is named as a salt. Where two headings read alike, the source gives them in different places.

What was measured:
Type in all cases: biochemical
[1] = target: T1, Recombinant Human Anaplastic Lymphoma Kinase (Homo sapiens, UniProt Q9UM73); assay: ALK HTRF kinase assay
T1 construct: purchased Invitrogen, Carlsbad, Calif
T1 sequence (Q9UM73 19-1620): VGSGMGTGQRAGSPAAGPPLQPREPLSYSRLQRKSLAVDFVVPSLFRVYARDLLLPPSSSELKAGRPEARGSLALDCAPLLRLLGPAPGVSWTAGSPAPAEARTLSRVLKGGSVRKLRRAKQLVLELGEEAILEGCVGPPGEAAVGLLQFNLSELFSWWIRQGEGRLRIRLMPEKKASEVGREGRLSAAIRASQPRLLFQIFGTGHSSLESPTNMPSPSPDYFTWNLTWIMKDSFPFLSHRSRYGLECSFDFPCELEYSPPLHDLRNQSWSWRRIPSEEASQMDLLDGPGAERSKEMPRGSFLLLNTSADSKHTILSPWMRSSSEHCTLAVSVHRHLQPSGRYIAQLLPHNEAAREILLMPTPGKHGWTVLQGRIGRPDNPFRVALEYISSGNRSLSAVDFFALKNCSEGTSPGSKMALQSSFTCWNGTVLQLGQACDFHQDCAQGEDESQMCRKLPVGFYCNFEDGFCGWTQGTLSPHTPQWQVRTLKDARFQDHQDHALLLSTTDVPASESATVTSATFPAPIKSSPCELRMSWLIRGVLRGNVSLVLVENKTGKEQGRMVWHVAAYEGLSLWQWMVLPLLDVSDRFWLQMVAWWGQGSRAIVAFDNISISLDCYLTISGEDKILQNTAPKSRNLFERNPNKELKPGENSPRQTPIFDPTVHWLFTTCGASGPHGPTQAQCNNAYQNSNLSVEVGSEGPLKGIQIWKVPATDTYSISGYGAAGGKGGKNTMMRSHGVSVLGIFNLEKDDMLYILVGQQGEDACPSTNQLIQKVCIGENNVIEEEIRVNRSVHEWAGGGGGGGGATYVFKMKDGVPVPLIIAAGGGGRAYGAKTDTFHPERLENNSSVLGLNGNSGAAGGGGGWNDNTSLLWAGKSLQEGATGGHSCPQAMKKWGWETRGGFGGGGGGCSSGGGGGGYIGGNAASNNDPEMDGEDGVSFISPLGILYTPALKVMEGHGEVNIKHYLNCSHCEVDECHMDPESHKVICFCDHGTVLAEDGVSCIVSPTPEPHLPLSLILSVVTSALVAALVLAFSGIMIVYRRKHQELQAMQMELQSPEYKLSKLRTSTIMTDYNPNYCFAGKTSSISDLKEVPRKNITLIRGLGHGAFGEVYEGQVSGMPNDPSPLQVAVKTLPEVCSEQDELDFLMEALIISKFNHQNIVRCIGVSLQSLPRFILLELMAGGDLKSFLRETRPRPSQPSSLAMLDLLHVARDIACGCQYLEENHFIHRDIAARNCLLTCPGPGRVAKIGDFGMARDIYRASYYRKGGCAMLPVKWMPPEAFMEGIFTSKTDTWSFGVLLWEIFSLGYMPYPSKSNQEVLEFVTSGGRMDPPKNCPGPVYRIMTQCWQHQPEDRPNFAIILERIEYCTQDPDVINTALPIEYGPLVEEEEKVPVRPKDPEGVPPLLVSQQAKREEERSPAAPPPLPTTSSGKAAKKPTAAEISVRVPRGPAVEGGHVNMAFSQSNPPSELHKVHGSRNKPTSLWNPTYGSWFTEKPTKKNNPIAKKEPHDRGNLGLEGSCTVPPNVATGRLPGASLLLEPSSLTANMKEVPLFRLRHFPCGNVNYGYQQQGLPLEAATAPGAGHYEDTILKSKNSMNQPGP
Procedure, shortened: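 Biotinylated peptide substrate, recombinant human ALK; detection via europium-chelate antibody to phosphotyrosine paired with streptavidin-APC. Potency expressed as IC50 from four-parameter curve fitting.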

[2] = target: T2, human JAK2 (a.a. 828-1132) (Homo sapiens, UniProt O60674); assay: In vitro JAK kinase assay (HTRF, phosphorylation of a biotinylated peptide), JAK2
T2 construct: JAK2 (a.a. 828-1132); His tag (N); made in house; host or cells: insect cells (baculovirus)
T2 sequence (O60674 828-1132): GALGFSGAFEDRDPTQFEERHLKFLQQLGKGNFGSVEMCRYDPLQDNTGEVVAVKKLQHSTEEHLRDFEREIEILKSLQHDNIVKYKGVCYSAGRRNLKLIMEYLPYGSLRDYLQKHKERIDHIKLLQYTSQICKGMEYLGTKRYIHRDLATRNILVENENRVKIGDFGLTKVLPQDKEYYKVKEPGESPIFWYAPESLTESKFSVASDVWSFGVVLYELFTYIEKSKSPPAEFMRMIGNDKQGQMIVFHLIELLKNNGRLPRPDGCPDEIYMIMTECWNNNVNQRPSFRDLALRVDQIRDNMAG
Procedure, shortened: (§1)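 Kinase reactions ran at room temperature for 1 h with ATP matched per isoform (JAK1 90 μM, JAK2 30 μM, JAK3 3 μM). After an EDTA stop, the phosphorylated biotin-peptide was read by HTRF using Eu-Py20 and SA-APC after 40 min binding.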

[3] = target: T3, human JAK1 (a.a. 837-1142) (Homo sapiens, UniProt P23458); assay: In vitro JAK kinase assay (HTRF, phosphorylation of a biotinylated peptide), JAK1; settings: read-out: JAK1 IC50
T3 construct: human JAK1 (a.a. 837-1142); His tag (N); made in house; host or cells: insect cells (baculovirus)
T3 sequence (P23458 849-1154): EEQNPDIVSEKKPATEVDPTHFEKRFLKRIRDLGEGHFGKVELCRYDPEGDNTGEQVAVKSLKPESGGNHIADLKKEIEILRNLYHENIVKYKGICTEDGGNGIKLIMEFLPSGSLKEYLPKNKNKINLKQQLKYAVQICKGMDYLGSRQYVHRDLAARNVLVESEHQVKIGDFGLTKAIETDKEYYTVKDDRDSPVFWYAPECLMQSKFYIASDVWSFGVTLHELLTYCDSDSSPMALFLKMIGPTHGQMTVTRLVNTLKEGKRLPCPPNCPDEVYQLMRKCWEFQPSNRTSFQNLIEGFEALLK
Procedure, shortened: as §1

TYK2 = TYK2 (Homo sapiens, UniProt P29597); assay: TYK2 kinase inhibition (Table A1)
Sequence of TYK2 (P29597 whole entry): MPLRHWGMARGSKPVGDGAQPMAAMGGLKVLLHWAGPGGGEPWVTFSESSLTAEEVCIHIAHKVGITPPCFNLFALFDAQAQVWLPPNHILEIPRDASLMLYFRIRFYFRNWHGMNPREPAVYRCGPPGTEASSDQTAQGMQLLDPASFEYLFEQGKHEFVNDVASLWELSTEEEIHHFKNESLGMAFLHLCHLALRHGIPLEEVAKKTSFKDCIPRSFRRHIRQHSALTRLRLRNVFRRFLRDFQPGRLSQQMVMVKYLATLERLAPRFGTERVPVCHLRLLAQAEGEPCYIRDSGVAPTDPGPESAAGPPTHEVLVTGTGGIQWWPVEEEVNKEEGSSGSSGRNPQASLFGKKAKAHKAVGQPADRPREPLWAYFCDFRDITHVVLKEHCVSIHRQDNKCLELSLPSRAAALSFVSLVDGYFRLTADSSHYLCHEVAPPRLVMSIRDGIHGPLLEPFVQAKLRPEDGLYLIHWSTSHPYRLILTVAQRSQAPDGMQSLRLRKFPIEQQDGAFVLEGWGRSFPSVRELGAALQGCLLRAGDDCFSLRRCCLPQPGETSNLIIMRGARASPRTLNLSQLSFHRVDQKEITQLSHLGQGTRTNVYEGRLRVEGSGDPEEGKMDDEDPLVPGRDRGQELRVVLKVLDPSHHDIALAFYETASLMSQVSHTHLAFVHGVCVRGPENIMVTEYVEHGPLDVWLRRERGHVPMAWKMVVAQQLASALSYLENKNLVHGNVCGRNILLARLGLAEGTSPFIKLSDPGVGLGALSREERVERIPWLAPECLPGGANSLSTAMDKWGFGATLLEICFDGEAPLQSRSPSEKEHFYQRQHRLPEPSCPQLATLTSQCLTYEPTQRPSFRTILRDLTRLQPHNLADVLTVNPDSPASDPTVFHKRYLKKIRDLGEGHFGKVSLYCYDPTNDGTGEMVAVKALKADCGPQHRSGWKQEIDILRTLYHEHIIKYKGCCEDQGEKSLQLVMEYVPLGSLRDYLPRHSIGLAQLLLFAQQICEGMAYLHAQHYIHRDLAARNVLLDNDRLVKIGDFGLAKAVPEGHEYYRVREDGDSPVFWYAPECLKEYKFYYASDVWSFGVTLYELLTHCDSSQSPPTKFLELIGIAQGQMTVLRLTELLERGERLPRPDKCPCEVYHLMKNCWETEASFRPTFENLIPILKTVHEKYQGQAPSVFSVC

[4] = target: T4, human JAK3 (a.a. 781-1124) (Homo sapiens, UniProt P52333); assay: In vitro JAK kinase assay (HTRF, phosphorylation of a biotinylated peptide), JAK3
T4 construct: JAK3 (a.a. 781-1124); His tag (N); made in house; host or cells: insect cells (baculovirus)
T4 sequence (P52333 781-1124): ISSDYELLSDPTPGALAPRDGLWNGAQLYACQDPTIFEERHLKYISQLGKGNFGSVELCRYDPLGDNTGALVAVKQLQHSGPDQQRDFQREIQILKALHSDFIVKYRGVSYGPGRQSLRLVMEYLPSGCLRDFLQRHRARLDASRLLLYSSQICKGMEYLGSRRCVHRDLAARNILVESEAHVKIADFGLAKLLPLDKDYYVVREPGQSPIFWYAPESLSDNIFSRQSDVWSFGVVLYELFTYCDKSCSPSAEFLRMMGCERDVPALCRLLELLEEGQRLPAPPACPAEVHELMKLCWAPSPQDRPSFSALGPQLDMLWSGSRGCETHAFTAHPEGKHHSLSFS
Procedure, shortened: as §1

[5] = compound at 500 nM or 1 mM, 90 μM ATP
[6] = method AA1 (30 μM ATP) or AA2 (1000 μM ATP), not stated per value
[7] = method AA1 (90 μM ATP) or AA2 (1000 μM ATP), not stated per value
[8] = method AA1 (3 μM ATP) or AA2 (1000 μM ATP), not stated per value

SMILES | ALK % of inhibition at a concentration of 500 nM or 1 mM [1, 5] | pIC50 [2, 6] | pIC50 [3, 7] | pIC50 (TYK2) | pIC50 [4, 8] | other results
CNC(=O)Nc1ccc2cc1CCc1cncc(c1)Nc1ncc(Cl)c(n1)N2 [Example B135, N-[6-Chloro-2,4,8,18,22-pentaazatetracyclo[14.3.1.1(3,7).1(9,13)]docosa-1(20),3(22),4,6,9(21),10,12,16,18-nonaen-12-yl]-N′-methylurea bis(trifluoroacetate)] | – | – | – | – | – | ALK % of inhibition at a concentration of 500 nM or 1 mM ([1]; compound at a concentration of 500 nM or 1 mM (not specified), cells shown as percentage): 13%; pIC50 ([2]; Table B1): 8.37; pIC50 ([3]; Table B1): 9.16; pIC50 (TYK2; Table B1): 8.17; pIC50 ([4]; Table B1): 7.52
CC(=O)N1CCN(CC(=O)Nc2ccc3cc2CCc2cncc(c2)Nc2ncc(Cl)c(n2)N3)CC1 [Example A127, 2-(4-Acetylpiperazin-1-yl)-N-[6-chloro-2,4,8,18,22-pentaazatetracyclo[14.3.1.1(3,7).1(9,13)]docosa-1(20),3(22),4,6,9(21),10,12,16,18-nonaen-12-yl]acetamide tris(trifluoroacetate)] | 15% | 7.19 | 7.51 | 7.23 | 6.46 | –
O=C(Nc1ccc2cc1CCc1cccc(c1)Nc1ncc(Cl)c(n1)N2)C1CCN(C(=O)c2ccc3c(c2)OCO3)CC1 [Example A31, 1-(1,3-Benzodioxol-5-ylcarbonyl)-N-[6-chloro-2,4,8,22-tetraazatetracyclo[14.3.1.1(3,7).1(9,13)]docosa-1(20),3(22),4,6,9(21),10,12,16,18-nonaen-12-yl]piperidine-4-carboxamide trifluoroacetate] | 26% | 7.31 | 7.38 | 6.94 | 6.97 | –
NC(=O)N1CCN(c2ccc(-c3cc4cc(c3)Nc3ncc(Cl)c(n3)Nc3cccc(c3)OCC4)cn2)CC1 [Example D40, 4-{5-[6-Chloro-14-oxa-2,4,8,23-tetraazatetracyclo[15.3.1.1(3,7).1(9,13)]tricosa-1(21),3(23),4,6,9(22),10,12,17,19-nonaen-19-yl]pyridin-2-yl}piperazine-1-carboxamide bis(trifluoroacetate)] | – | – | – | – | – | pIC50 ([1]; Table D1, 90 μM ATP): 6.74; pIC50 ([2]; Table D1): 9.15; pIC50 ([3]; Table D1): 9.05; pIC50 (TYK2; Table D1): 8.68; pIC50 ([4]; Table D1): 8.14
c1cc2cc(c1)Nc1ccnc(n1)Nc1cccc(c1)CC2 [Example A3, 2,4,8,22-Tetraazatetracyclo[14.3.1.1(3,7).1(9,13)]docosa-1(20),3(22),4,6,9(21),10,12,16,18-nonaene trifluoroacetate] | – | 7.82 | 7.30 | 7.26 | 7.35 | pIC50 ([1]; 90 μM ATP): 5.69
O=C(CC1CCNCC1)Nc1ccc2cc1CCc1cncc(c1)Nc1ncc(Cl)c(n1)N2 [Example A71, N-[6-Chloro-2,4,8,18,22-pentaazatetracyclo[14.3.1.1(3,7).1(9,13)]docosa-1(20),3(22),4,6,9(21),10,12,16,18-nonaen-12-yl]-2-piperidin-4-ylacetamide tris(trifluoroacetate)] | 26% | 7.16 | 7.72 | 7.24 | 6.95 | –
O=C(Nc1ccc(Cl)cc1)c1cc2cc(c1)Nc1nc(ncc1Cl)Nc1cccc(c1)CC2 [Example B15, 6-Chloro-N-(4-chlorophenyl)-2,4,8,22-tetraazatetracyclo[14.3.1.1(3,7).1(9,13)]docosa-1(20),3(22),4,6,9(21),10,12,16,18-nonaene-11-carboxamide trifluoroacetate] | – | – | – | – | – | pIC50 ([1]; Table B1, cells without percent sign): < 6.00; pIC50 ([2]; Table B1): 6.95; pIC50 ([3]; Table B1): 6.80; pIC50 (TYK2; Table B1): < 6.00; pIC50 ([4]; Table B1): 6.44
CN(C)S(=O)(=O)N1CCC(CC(=O)Nc2ccc3cc2CCc2cncc(c2)Nc2ncc(Cl)c(n2)N3)CC1 [Example A96, N-[6-Chloro-2,4,8,18,22-pentaazatetracyclo[14.3.1.1(3,7).1(9,13)]docosa-1(20),3(22),4,6,9(21),10,12,16,18-nonaen-12-yl]-2-{1-[(dimethylamino)sulfonyl]piperidin-4-yl}acetamide bis(trifluoroacetate)] | 26% | 8.18 | 8.35 | 7.96 | 7.10 | –
